Results as given in US20230125429A1 (priority 2017, published 2023).
Where “and” joins values, the source holds several entries; their conditions need not be identical. Identical values can stand only once.

Legend:
Test in all cases: Growth inhibitory effect, one hour exposure (IncuCyte Zoom)
Format in all cases: cell-based, human
AGS = conditions: Gastric cancer
Protocol: (§1) Cancer cell lines and immortalized human cell lines were cultured in 1640 tissue culture medium (Corning, USA) with 10% fetal bovine serum in a standard tissue culture condition of 37° C. and 5% CO2.
(§2) For primary hepatocytes, the seeded cells were monitored for up to 48 hours either without any treatment (as a control) or with various types of treatments. For primary keratinocytes, cells in 48-well plates were monitored either without any treatment or with various types of treatment for up to 96 hours. For HepG2, cells 96-well plates were monitored either without any treatment or with various types of treatments for up to 48 hours. The IncuCyte Zoom was set to take a set of images at fixed locations (4 per well for 96-well plates and 16 per well for 48-well plates and 12-well plates) every three hours.
(§3) The one-hour exposure is intended to simulate the transient high concentrations within the liver as the results of either the first pass effects of some orally administered drugs, or of locally delivered drugs, anticipating that such a short term exposure is nevertheless sufficient to affect certain cell surface receptors without causing any significant off-target effects due to intracellular absorption. Such a strategy would also reduce false hits due to reversible cell cycle arrests.
(§4) To address this possibility, we investigated whether other cell lines, including other HCC cell lines, cell lines from other type of cancers, as well as non-cancer immortalized/transformed cell lines, were also sensitive to Triptonide. Specifically, a total of 51 human cancer cell lines, representing 10 types of human cancers (6 non-small cell lung cancer cell lines, 5 colon cancer cell lines, 5 central nerve system cancer cell lines, 8 Melanomas cell lines, 4 ovarian cancer cell lines, 4 renal cancer cell lines, 2 prostate cancer cell lines, 3 breast cancer cell lines, 7 hepatocellular carcinoma cell lines, and 4 gastric cancer cell lines) were analyzed.

CAKI-1 = conditions: CAKI-1, Renal
Protocol: as §1, §2, §3, §4

DU-145 = conditions: DU-145, Prostate
Protocol: as §1, §2, §3, §4

EKVX = conditions: Non-Small Cell Lung
Protocol: as §1, §2, §3, §4

HCT-116 = conditions: HCT-116, Colon
Protocol: as §1, §2, §3, §4

HOP-62 = conditions: HOP-62, Non-Small Cell Lung
Protocol: as §1, §2, §3, §4

HS 578T = conditions: Breast
Protocol: as §1, §2, §3, §4

HT29 = conditions: HT29, Colon
Protocol: as §1, §2, §3, §4

Hep3B = conditions: Hepatocellular carcinoma
Protocol: as §1, §2, §3, §4

HepG2 = test system: HepG2
Protocol: as §1, §2, §3, §4

Huh7 = conditions: Huh7, Hepatocelular carcinoma
Protocol: as §1, §2, §3, §4

LM9 = conditions: LM9, Hepatocellular carcinoma
Protocol: as §1, §2, §3, §4

LOX IMV1 = conditions: LOX IMV1, Melanoma
Protocol: as §1, §2, §3, §4

M14 = conditions: M14, Melanoma
Protocol: as §1, §2, §3, §4

MALME-3M = conditions: Melanoma
Protocol: as §1, §2, §3, §4

MCP7 = conditions: MCP7, Breast
Protocol: as §1, §2, §3, §4

MGC803 = conditions: MGC803, Gastric cancer
Protocol: as §1, §2, §3, §4

NCI-H226 = conditions: NCI-H226, Non-Small Cell Lung
Protocol: as §1, §2, §3, §4

NCI-H23 = conditions: NCI-H23, Non-Small Cell Lung
Protocol: as §1, §2, §3, §4

NCI-H460 = conditions: NCI-H460, Non-Small Cell Lung
Protocol: as §1, §2, §3, §4

NCI-H522 = conditions: NCI-H522, Non-Small Cell Lung
Protocol: as §1, §2, §3, §4

OVCAR-3 = conditions: OVCAR-3, Ovarian
Protocol: as §1, §2, §3, §4

OVCAR-4 = conditions: OVCAR-4, Ovarian
Protocol: as §1, §2, §3, §4

PC-3 = conditions: PC-3, Prostate
Protocol: as §1, §2, §3, §4

SF-539 = conditions: SF-539, CNS
Protocol: as §1, §2, §3, §4

SGC7901 = conditions: SGC7901, Gastric cancer
Protocol: as §1, §2, §3, §4

SK-OV-3 = conditions: SK-OV-3, Ovarian
Protocol: as §1, §2, §3, §4

SN12C = conditions: Renal
Protocol: as §1, §2, §3, §4

SNB-19 = conditions: SNB-19, CNS
Protocol: as §1, §2, §3, §4

SNU-387 = conditions: SNU-387, Hepatocellular carcinoma
Protocol: as §1, §2, §3, §4

SNU-449 = conditions: SNU-449, Hepatocellular carcinoma
Protocol: as §1, §2, §3, §4

SW-620 = conditions: SW-620, Colon
Protocol: as §1, §2, §3, §4

T-47D = conditions: Breast
Protocol: as §1, §2, §3, §4

UACC-62 = conditions: UACC-62, Melanoma
Protocol: as §1, §2, §3, §4

## CC(C)[C@]12O[C@H]1[C@@H]1O[C@@]13[C@@]1(C)CCC4=C(COC4=O)[C@@H]1C[C@@H]1O[C@@]13C2=O [Triptonide]
AGS
  IC50: 4.07 µM
CAKI-1
  IC50: 6.15 µM
DU-145
  IC50: 2.38 µM
EKVX
  IC50: 2.38 µM
HCT-116
  IC50: 2.57 µM
HOP-62
  IC50: 9.23 µM
HS 578T
  IC50: 1.86 µM
HT29
  IC50: 1.7 µM
Hep3B
  IC50: 1.28 µM
HepG2; 4 µM or higher for one hour
  effect on growth of HepG2: significant growth inhibition
HepG2; 16 µM and above, one hour
  effect on cell density of HepG2: apparent reduction in cell density
HepG2; HepG2, Hepatocellular carcinoma, one hour exposure
  IC50: 7.5 µM and 7.51 µM
Huh7
  IC50: 1.75 µM
LM9
  IC50: 4.24 µM
LOX IMV1
  IC50: 1.77 µM
M14
  IC50: 4.93 µM
MALME-3M
  IC50: 3.44 µM
MCP7
  IC50: 0.592 µM
MGC803
  IC50: 2.58 µM
NCI-H226
  IC50: 11.2 µM
NCI-H23
  IC50: 0.41 µM and 0.415 µM
NCI-H460
  IC50: 8.44 µM
NCI-H522
  IC50: 23.1 µM
OVCAR-3
  IC50: 4.9 µM
OVCAR-4
  IC50: 1.54 µM
PC-3
  IC50: 6.71 µM
SF-539
  IC50: 1.14 µM
SGC7901
  IC50: 12 µM
SK-OV-3
  IC50: 3.89 µM
SN12C
  IC50: 1.07 µM
SNB-19
  IC50: 51 µM
SNU-387
  IC50: 6.82 µM
SNU-449
  IC50: 4.92 µM
SW-620
  IC50: 11.6 µM
T-47D
  IC50: 1.81 µM
UACC-62
  IC50: 9.35 µM
